# Data published in US20140256660A1, “ANTIBIOTIC CONJUGATES LINKED WITH STEROID DRUGS” (Allergan, Inc., priority 2013, published 2014).
# System: human recombinant carboxylesterases
# Assay: In vitro metabolic stability (rate of metabolite formation) in human recombinant carboxylesterases
# Format: in vitro ADME
# Settings: human recombinant carboxylesterases 0.1 mg/mL, 1 μM test compound, pH 6.0, 37° C.
# Method: Dutch Belted rabbits were euthanized with an overdose of sodium pentobarbital. The corneas were collected and homogenized in ice-cold potassium chloride solution (pH=7.4). The homogenate was centrifuged at 755×g for 30 min at 4° C. and aliquots of the supernatant were stored at or below −70° C. until metabolism experiments were conducted. Prior to storing the homogenates an aliquot was removed for determination of protein concentrations by calculating the 260 nm absorbance using a spectrophotometer. Human recombinant carboxylesterases were purchased from a commercial vendor (BD Gentest™, Bedford, Mass.)
# All metabolic stability experiments were performed in triplicate in 96-well plate format. The final incubation mixture contained 1 μM test compound, 0.3 mg/mL corneal protein homogenate or 0.1 mg/mL human recombinant carboxylesterase mixture in a final volume of 0.5 mL 0.1 M potassium phosphate buffer (pH=6.0). The final percentage of solvent in the incubation was less than 1.0% to prevent inhibition of enzymatic activity. Following a pre-incubation at 37° C., test article (i.e. ester linked hybrids) was added to initiate the reaction. At designated time points (typically less than 60 minutes to capture the linear range of metabolite formation), 0.05 mL aliquots were removed from the incubation mixtures using a clean pipet tip and immediately placed in organic solvent to stop any esterase activity.
# Hydrolysis of the metabolites was confirmed to be due to esterase activity and not chemical lability. The samples were analyzed by liquid chromatography with mass spectrometry (LC-MS/MS) detection to determine the metabolite concentrations resulting from the metabolism of ester linked hybrids. Internal standards were used to compensate for variability from sample processing, chromatographic elution, mass spectrometer response and ion suppression by matrix components.
SMILES,Rate of formation Metabolite 2 (Gatifloxacin) (metabolite Gatifloxacin) [nM/min/mg],Rate of formation Metabolite 1 (Dexamethasone) [nM/min/mg],Rate of formation Metabolite 1 (Prednisolone) (metabolite Prednisolone) [nM/min/mg],other results
"COc1c(N2CCN(C(=O)OCOC(=O)CCC(=O)OCC(=O)[C@@]3(O)[C@@H](C)CC4C5CCC6=CC(=O)C=C[C@]6(C)[C@@]5(F)[C@@H](O)C[C@@]43C)C(C)C2)c(F)cc2c(=O)c(C(=O)O)cn(C3CC3)c12 (relative stereo) [Compound 2, rel-1-cyclopropyl-6-fluoro-7-[4-({[(4-{2-[(9R,10S,11S,13S,16S,17R)-9-fluoro-11,17-dihydroxy-10,13,16-trimethyl-3-oxo-6,7,8,9,10,11,12,13,14,15,16,17-dodecahydro-3H-cyclopenta[a]phenanthren-17-yl]-2-oxoethoxy}-4-oxobutanoyl)oxy]methoxy}carbonyl)-3-methylpiperazin-1-yl]-8-methoxy-4-oxo-1,4-dihydroquinoline-3-carboxylic acid]",112 ± 4,,,Rate of formation Metabolite 1 (Betamethasone) (metabolite Betamethasone): 109 ± 2 nM/min/mg
"COc1c(N2CCN(C(=O)OCOC(=O)CCC(=O)OCC(=O)[C@@]3(O)[C@H](C)CC4C5CCC6=CC(=O)C=C[C@]6(C)[C@@]5(F)[C@@H](O)C[C@@]43C)C(C)C2)c(F)cc2c(=O)c(C(=O)O)cn(C3CC3)c12 (relative stereo) [Compound 11, rel-1-cyclopropyl-6-fluoro-7-[4-({[(4-{2-[(9R,10S,11S,13S,16R,17R)-9-fluoro-11,17-dihydroxy-10,13,16-trimethyl-3-oxo-6,7,8,9,10,11,12,13,14,15,16,17-dodecahydro-3H-cyclopenta[a]phenanthren-17-yl]-2-oxoethoxy}-4-oxobutanoyl)oxy]methoxy}carbonyl)-3-methylpiperazin-1-yl]-8-methoxy-4-oxo-1,4-dihydroquinoline-3-carboxylic acid]",56 ± 2.1,44.5 ± 2.62,,
"COc1c(N2CCNC(C)C2)c(F)cc2c(=O)c(C(=O)OCCCOC(=O)CCC(=O)OCC(=O)[C@]3(O)[C@@H](C)C[C@@H]4[C@H]5CCC6=CC(=O)C=C[C@@]6(C)[C@]5(F)[C@H](O)C[C@]43C)cn(C3CC3)c12 (relative stereo) [Compound 18, 3-({[1-cyclopropyl-6-fluoro-8-methoxy-7-(3-methylpiperazin-1-yl)-4-oxo-1,4-dihydroquinolin-3-yl]carbonyl}oxy)propyl 2-[(8R,9S,10R,11R,13R,14R,16S,17S)-9-fluoro-11,17-dihydroxy-10,13,16-trimethyl-3-oxo-6,7,8,9,10,11,12,13,14,15,16,17-dodecahydro-3H-cyclopenta[a]phenanthren-17-yl]-2-oxoethyl rel-butanedioate]",2.44 ± 0.87,59.7 ± 5.15,,
"COc1c(N2CCN(C(=O)OCOC(=O)CCC(=O)N[C@@H](C(=O)OCC(=O)[C@]3(O)CCC4C5CCC6=CC(=O)C=C[C@@]6(C)C5[C@H](O)C[C@]43C)C(C)C)C(C)C2)c(F)cc2c(=O)c(C(=O)O)cn(C3CC3)c12 (relative stereo) [Compound 29, rel-1-cyclopropyl-7-{4-[(10R)-14-[(10S,11R,13R,17S)-11,17-dihydroxy-10,13-dimethyl-3-oxo-6,7,8,9,10,11,12,13,14,15,16,17-dodecahydro-3H-cyclopenta[a]phenanthren-17-yl]-5,8,11,14-tetraoxo-10-(propan-2-yl)-2,4,12-trioxa-9-azatetradecan-1-oyl]-3-methylpiperazin-1-yl}-6-fluoro-8-methoxy-4-oxo-1,4-dihydroquinoline-3-carboxylic acid]",36.5 ± 1.1,,17.3 ± 0.1,
"COc1c(N2CCNC(C)C2)c(F)cc2c(=O)c(C(=O)OCCCC(=O)OCC(=O)[C@]3(O)CC[C@@H]4[C@H]5CCC6=CC(=O)C=C[C@@]6(C)C5[C@H](O)C[C@]43C)cn(C3CC3)c12 (relative stereo) [Compound 41, 4-{2-[(8R,10S,11R,13R,14R,17S)-11,17-dihydroxy-10,13-dimethyl-3-oxo-6,7,8,9,10,11,12,13,14,15,16,17-dodecahydro-3H-cyclopenta[a]phenanthren-17-yl]-2-oxoethoxy}-4-oxobutyl rel-1-cyclopropyl-6-fluoro-8-methoxy-7-(3-methylpiperazin-1-yl)-4-oxo-1,4-dihydroquinoline-3-carboxylate]",,,,Rate of formation Metabolite 1 (Gatifloxacin) (metabolite Gatifloxacin): 7.60 ± 2.1 nM/min/mg; Rate of formation Metabolite 2 (Prednisolone) (metabolite Prednisolone): 74.6 ± 4.1 nM/min/mg
"COc1c(N2CCNC(C)C2)c(F)cc2c(=O)c(C(=O)OCOC(=O)OCC(=O)[C@]3(O)CC[C@@H]4[C@H]5CCC6=CC(=O)C=C[C@@]6(C)C5[C@H](O)C[C@]43C)cn(C3CC3)c12 (relative stereo) [Compound 42, [({2-[(8R,10S,11R,13R,14R,17S)-11,17-dihydroxy-10,13-dimethyl-3-oxo-6,7,8,9,10,11,12,13,14,15,16,17-dodecahydro-3H-cyclopenta[a]phenanthren-17-yl]-2-oxoethoxy}carbonyl)oxy]methyl rel-1-cyclopropyl-6-fluoro-8-methoxy-7-(3-methylpiperazin-1-yl)-4-oxo-1,4-dihydroquinoline-3-carboxylate]",668 ± 102,,633 ± 85,
"COc1c(N2CCNC(C)C2)c(F)cc2c(=O)c(C(=O)OC(C)OC(=O)OCC(=O)[C@]3(O)CC[C@@H]4[C@H]5CCC6=CC(=O)C=C[C@@]6(C)C5[C@H](O)C[C@]43C)cn(C3CC3)c12 (relative stereo) [Compound 43, 1-[({2-[(8R,10S,11R,13R,14R,17S)-11,17-dihydroxy-10,13-dimethyl-3-oxo-6,7,8,9,10,11,12,13,14,15,16,17-dodecahydro-3H-cyclopenta[a]phenanthren-17-yl]-2-oxoethoxy}carbonyl)oxy]ethyl rel-1-cyclopropyl-6-fluoro-8-methoxy-7-(3-methylpiperazin-1-yl)-4-oxo-1,4-dihydroquinoline-3-carboxylate]",419 ± 8,,298 ± 13,
"COc1c(N2CCNC(C)C2)c(F)cc2c(=O)c(C(=O)OCOC(=O)CCC(=O)OCC(=O)[C@]3(O)CC[C@@H]4[C@H]5CCC6=CC(=O)C=C[C@@]6(C)C5[C@H](O)C[C@]43C)cn(C3CC3)c12 (relative stereo) [Compound 44, ({[1-cyclopropyl-6-fluoro-8-methoxy-7-(3-methylpiperazin-1-yl)-4-oxo-1,4-dihydroquinolin-3-yl]carbonyl}oxy)methyl 2-[(8R,10S,11R,13R,14R,17S)-11,17-dihydroxy-10,13-dimethyl-3-oxo-6,7,8,9,10,11,12,13,14,15,16,17-dodecahydro-3H-cyclopenta[a]phenanthren-17-yl]-2-oxoethyl rel-butanedioate]",760 ± 110,,365 ± 32,
"COc1c(N2C[C@H]3CCCN[C@H]3C2)c(F)cc2c(=O)c(C(=O)OCCCOC(=O)c3ccc(C(=O)OCC(=O)[C@@]4(O)[C@H](C)C[C@H]5[C@@H]6CCC7=CC(=O)C=C[C@]7(C)[C@@]6(F)[C@@H](O)C[C@@]54C)cc3)cn(C3CC3)c12 (relative stereo) [Compound 54, 3-[({1-cyclopropyl-6-fluoro-8-methoxy-7-[(4aR,7aR)-octahydro-6H-pyrrolo[3,4-b]pyridin-6-yl]-4-oxo-1,4-dihydroquinolin-3-yl}carbonyl)oxy]propyl 2-[(8S,9R,10S,11S,13S,14S,16R,17R)-9-fluoro-11,17-dihydroxy-10,13,16-trimethyl-3-oxo-6,7,8,9,10,11,12,13,14,15,16,17-dodecahydro-3H-cyclopenta[a]phenanthren-17-yl]-2-oxoethyl rel-benzene-1,4-dicarboxylate]",,67.8 ± 1.78,,Rate of formation Metabolite 2 (Moxifloxacin): 0.717 ± 0.625 nM/min/mg
"COc1c(N2CC3CCCN(C(=O)OCOC(=O)CCC(=O)OCC(=O)[C@]4(O)CC[C@@H]5[C@H]6CCC7=CC(=O)C=C[C@@]7(C)[C@@H]6[C@H](O)C[C@]54C)C3C2)c(F)cc2c(=O)c(C(=O)O)cn(C3CC3)c12 (relative stereo) [Compound 59, rel-1-cyclopropyl-7-[1-({[(4-{2-[(8R,9R,10S,11R,13R,14R,17S)-11,17-dihydroxy-10,13-dimethyl-3-oxo-6,7,8,9,10,11,12,13,14,15,16,17-dodecahydro-3H-cyclopenta[a]phenanthren-17-yl]-2-oxoethoxy}-4-oxobutanoyl)oxy]methoxy}carbonyl)octahydro-6H-pyrrolo[3,4-b]pyridin-6-yl]-6-fluoro-8-methoxy-4-oxo-1,4-dihydroquinoline-3-carboxylic acid]",,,416 ± 192,Rate of formation Metabolite 2 (Moxifloxacin): 350 ± 180 nM/min/mg
